Data on 18 compounds can be found in patent US7109193B2, “Tricyclic diazepines tocolytic oxytocin receptor antagonists” (Wyeth, priority 2001, dated 2006).

T1 sequence (P30518 whole entry): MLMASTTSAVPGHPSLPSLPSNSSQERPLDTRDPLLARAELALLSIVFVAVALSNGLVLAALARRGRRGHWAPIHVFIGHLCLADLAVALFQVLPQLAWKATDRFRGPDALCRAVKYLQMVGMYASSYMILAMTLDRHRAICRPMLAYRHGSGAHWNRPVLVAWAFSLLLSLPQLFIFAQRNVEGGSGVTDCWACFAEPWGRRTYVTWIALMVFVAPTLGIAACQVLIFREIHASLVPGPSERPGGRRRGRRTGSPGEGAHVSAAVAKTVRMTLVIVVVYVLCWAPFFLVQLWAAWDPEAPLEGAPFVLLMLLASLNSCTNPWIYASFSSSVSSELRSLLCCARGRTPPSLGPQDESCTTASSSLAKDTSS

This experiment has as its target T1, human vasopressin V2 receptor subtype (Homo sapiens, UniProt P30518).
T1 construct: host or cells: CHO cells (pZeoSV vector)
Briefly: Vasopressin binding in Chinese Hamster Ovary cell membranes expressing human vasopressin V2 subtype receptors. To be noted: 100 nM, CHO cell membranes, [3H]arginine vasopressin, values without parentheses. In outline:
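Radioligand displacement on membranes from CHO cells stably expressing human V2 receptor, 25 to 50 μg protein/well, in 50 mM Tris-HCl pH 7.4 with MgCl2, BSA and protease inhibitors. [^3H]arginine vasopressin (8 nM working solution) incubated 60 min at room temperature; bound label measured by filtration and scintillation counting.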
In general, inhibition refers to the change of the read-out against control, counted positive when it falls. Take `COc1cc(C(=O)N2Cc3ccc(C(=O)NCCC4CCCN4C)n3Cc3ccccc32)ccc1-c1cccc2ccccc12` (stereo not drawn) [Example 170, 10-[3-Methoxy-4-(1-naphthyl)benzoyl]-N-[2-(1-methyl-2-pyrrolidinyl)ethyl]-10,11-dihydro-5H-pyrrolo[2,1-c][1,4]benzodiazepine-3-carboxamide]: the inhibition at 0.1 µM turned out to be 27%.

Take `C=CCN1CCN(C(=O)c2ccc3n2Cc2ccccc2N(C(=O)c2ccc(-c4ccccc4C(F)(F)F)c(C)c2)C3)CC1` [Example 230, (4-Allyl-1-piperazinyl)(10-{[2-methyl-2′-(trifluoromethyl)[1,1′-biphenyl]-4-yl]carbonyl}-10,11-dihydro-5H-pyrrolo[2,1-c][1,4]benzodiazepin-3-yl)methanone]: the inhibition at 0.1 µM came to 4%. Consider `COc1cc(C(=O)N2Cc3ccc(C(=O)N4CCN(C(C)C)CC4)n3Cc3ccccc32)ccc1-c1ccccc1C` [Example 237, (4-isopropyl-1-piperazinyl){10-[(2-methoxy-2′-methyl[1,1′-biphenyl]-4-yl)carbonyl]-10,11-dihydro-5H-pyrrolo[2,1-c][1,4]benzodiazepin-3-yl}methanone], for which the inhibition at 0.1 µM is -3%. The result for `COc1ccccc1-c1ccc(C(=O)N2Cc3ccc(C(=O)N4CCN(C(C)C)CC4)n3Cc3ccccc32)cc1OC` [Example 241, {10-[(2,2′-Dimethoxy[1,1-biphenyl]4-yl)carbonyl]-10,11-dihydro-5H-pyrrolo[2,1-c][1,4]benzodiazepin-3-yl}(4-isopropyl-1-piperazinyl)methanone] reads -17%.

Consider `COc1cc(C(=O)N2Cc3ccc(C(=O)N4CCN(CCN5CCOCC5)CC4)n3Cc3ccccc32)ccc1-c1ccccc1C` [Example 210, {10-[(2-Methoxy-2′-methyl[1,1′-biphenyl]-4-yl)carbonyl]-10,11-dihydro-5H-pyrrolo[2,1-c][1,4]benzodiazepin-3-yl}{4-[2-(4-morpholinyl)ethyl]-1-piperazinyl}methanone], for which the inhibition at 0.1 µM came to 17%. Next, `Cc1cc(C(=O)N2Cc3ccc(C(=O)N4CCN(C(=O)OC(C)(C)C)CC4)n3Cc3ccccc32)ccc1-c1ccccc1C(F)(F)F` [Example 6, 4-[[10,11-Dihydro-10-[[2-methyl-2′-trifluoromethyl[1,1′-biphenyl]-4-yl]carbonyl]-5H-pyrrolo[2,1-c][1,4]benzodiazepin-3-yl]carbonyl]-1-piperazine-carboxylic acid, tert-butyl ester]: 13%. The result for `COc1cccc(-c2ccc(C(=O)N3Cc4ccc(C(=O)N5CCN(C(C)C)CC5)n4Cc4ccccc43)cc2C)c1` [Example 235, (4-Isopropyl-1-piperazinyl){10-[(3′-methoxy-2-methyl[1,1′-biphenyl]-4-yl)carbonyl]-10,11-dihydro-5H-pyrrolo[2,1-c][1,4]benzodiazepin-3-yl}methanone] reads 17%; that for `CN(C)CCN1CCN(C(=O)c2ccc3n2Cc2ccccc2N(C(=O)c2ccc(-c4cccc5ccccc45)cc2Cl)C3)CC1` [Example 205, {10-[2-Chloro-4-(1-naphthyl)benzoyl]-10,11-dihydro-5H-pyrrolo[2,1-c][1,4]benzodiazepin-3-yl}{4-[2-(dimethylamino)ethyl]-1-piperazinyl}methanone], 18%. Next, `COc1ccccc1-c1ccc(C(=O)N2Cc3ccc(C(=O)N(C)C4CCN(C)C4)n3Cc3ccccc32)cc1` (stereo not drawn) [Example 187, 10-[(2′-Methoxy[1,1′-biphenyl]-4-yl)carbonyl]-N-methyl-N-(1-methyl-3-pyrrolidinyl)-10,11-dihydro-5H-pyrrolo[2,1-c][1,4]benzodiazepine-3-carboxamide]: 31%; `COc1cc(-c2ccccc2C)c(Cl)cc1C(=O)N1Cc2ccc(C(=O)N3CCN(C(C)C)CC3)n2Cc2ccccc21` [Example 238, {10-[(6-Chloro-3-methoxy-2′-methyl[1,1′-biphenyl]-4-yl)carbonyl]-10,11-dihydro-5H -pyrrolo[2,1-c][1,4]benzodiazepin-3-yl}(4-isopropyl-1-piperazinyl)methanone]: 27%. On to `COc1ccccc1-c1ccc(C(=O)N2Cc3ccc(C(=O)NCCC4CCCN4C)n3Cc3ccccc32)cc1C` (stereo not drawn) [Example 162, 10-[(2′-Methoxy-2-methyl[1,1′-biphenyl]-4-yl)carbonyl]-N-[2-(1-methyl-2-pyrrolidinyl)ethyl]-10,11-dihydro-5H-pyrrolo[2,1-c][1,4]benzodiazepine-3-carboxamide], for which the inhibition at 0.1 µM is 20%. Next, `Cc1ccccc1-c1ccc(C(=O)N2Cc3ccc(C(=O)N4CCN(CCN(C)C)CC4)n3Cc3ccccc32)cc1C` [Example 198, {4-[2-(Dimethylamino)ethyl]-1-piperazinyl}{10-[(2,2′-dimethyl[1,1′-biphenyl]-4-yl)carbonyl]-10,11-dihydro-5H-pyrrolo[2,1-c][1,4]benzodiazepin-3-yl}methanone]: 19%; `COc1cccc(-c2cc(OC)c(C(=O)N3Cc4ccc(C(=O)N(C)C5CCN(C)C5)n4Cc4ccccc43)cc2Cl)c1` (stereo not drawn) [Example 191, 10-[(6-Chloro-3,3′-dimethoxy[1,1′-biphenyl]-4-yl)carbonyl]-N-methyl-N-(1-methyl-3-pyrrolidinyl)-10,11-dihydro-5H-pyrrolo[2,1-c][1,4]benzodiazepine-3-carboxamide]: 17%.

As for `COc1cc(C(=O)N2Cc3ccc(C(=O)N(C)C4CCN(C)CC4)n3Cc3ccccc32)ccc1-c1ccccc1C` [Example 179, 10-[(2-Methoxy-2′-methyl[1,1′-biphenyl]-4-yl)carbonyl]-N-methyl-N-(1-methyl-4-piperidinyl)-10,11-dihydro-5H-pyrrolo[2,1-c][1,4]benzodiazepine-3-carboxamide], the inhibition at 0.1 µM is 23%. Next, `COc1cccc(-c2ccc(C(=O)N3Cc4ccc(C(=O)N5CCN(CCN6CCOCC6)CC5)n4Cc4ccccc43)cc2C)c1` [Example 208, {10-[(3′-Methoxy-2-methyl[1,1′-biphenyl]-4-yl)carbonyl]-10,11-dihydro-5H-pyrrolo[2,1-c][1,4]benzodiazepin-3-yl}{4-[2-(4-morpholinyl)ethyl]-1-piperazinyl}methanone]: 12%; `C=CCN1CCN(C(=O)c2ccc3n2Cc2ccccc2N(C(=O)c2ccc(-c4cccc(OC)c4)c(C)c2)C3)CC1` [Example 223, (4-Allyl-1-piperazinyl){10-[(3′-methoxy-2-methyl[1,1′-biphenyl]-4-yl)carbonyl]-10,11-dihydro-5H-pyrrolo[2,1-c][1,4]benzodiazepin-3-yl}methanone]: 13%; `COc1ccccc1-c1ccc(C(=O)N2Cc3ccc(C(=O)N(C)C4CCN(C)C4)n3Cc3ccccc32)cc1OC` (stereo not drawn) [Example 193, 10-[(2,2′-Dimethoxy[1,1′-biphenyl]-4-yl)carbonyl]-N-methyl-N-(1-methyl-3-pyrrolidinyl)-10,11-dihydro-5H-pyrrolo[2,1-c][1,4]benzodiazepine-3-carboxamide]: 16%.

With `COc1ccccc1-c1ccc(C(=O)N2Cc3ccc(C(=O)N4CCN(CCN5CCOCC5)CC4)n3Cc3ccccc32)cc1OC` [Example 214, {10-[(2,2′-Dimethoxy[1,1′-biphenyl]-4-yl)carbonyl]-10,11-dihydro-5H-pyrrolo[2,1-c][1,4]benzodiazepin-3-yl}{4-[2-(4-morpholinyl)ethyl]-1-piperazinyl}methanone], the inhibition at 0.1 µM is 11%.
